Experimental data published in patent US20050208084A1, “Use of alkylamidomandelates as flavourings” (priority 2002, published 2005).

How the values were obtained:
[1] = Tasting the mandelic acid alkylamides (sensory panel, ethanolic solution diluted in 11% sugar solution, swallowed); assay type: in vivo; details: for estimation of pungency: scale of 1 (very weak) to 9 (very strong), 6-8 testers
Procedure: The substance to be tasted is dissolved in ethanol and the ethanolic solution is then diluted with an 11% sugar solution (final concentration: c). For tasting, in each case approximately 5 ml of the sugar solution are swallowed. If the threshold value of the substance is known, a value just above the threshold value is chosen for the tasting. A group of 6-8 testers tasted the solutions.
Where possible, the impression of pungency was estimated on a scale of 1 (very weak) to 9 (very strong).

[2] = cited from earlier work

CCCCCCCCNC(=O)C(O)c1ccc(O)c(OC)c1 (centres unmarked) [no. 9, 2-(4-Hydroxy-3-methoxyphenyl)-2-hydroxy-N-octylacetamide]
taste profile ([1]; 1 ppm in 11% sugar solution): no pungency initially, develops suddenly, very intense and long-lasting, ginger pungency | estimation of pungency ([1]; 1 ppm in 11% sugar solution): 8

COc1cc(CNC(=O)CCCCCCC(C)C)ccc1O [Dihydrocapsaicin, reference compound]
taste profile ([1]; 100 ppb in 11% sugar solution): slightly delayed onset of effect in pharyngeal cavity, burning, aggressive, no development of heat

CCCCCCCNC(=O)C(O)c1ccc(O)c(OC)c1 (centres unmarked) [no. 8, 2-(4-Hydroxy-3-methoxyphenyl)-2-hydroxy-N-heptylacetamide]
taste profile ([1]; 10 ppm in 11% sugar solution): pungency develops; burning, slightly over-ripe | estimation of pungency ([1]; 10 ppm in 11% sugar solution): 7

CCCCCCCCNC(=O)C(O)c1ccc(O)c(O)c1 (centres unmarked) [no. 4, 2-(3,4-Dihydroxyphenyl)-2-hydroxy-N-octylacetamide]
taste profile ([1]; 10 ppm in 11% sugar solution): pungency develops slowly; stinging, rough, slightly spicy | estimation of pungency ([1]; 10 ppm in 11% sugar solution): 5

CCCCCCCCCNC(=O)C(O)c1ccc(O)c(OC)c1 (centres unmarked) [no. 10, 2-(4-Hydroxy-3-methoxyphenyl)-2-hydroxy-N-nonylacetamide]
taste profile ([1]; 10 ppm in 11% sugar solution): immediate onset of pungency; similar to capsaicin | estimation of pungency ([1]; 10 ppm in 11% sugar solution): 8

CCCCCCCCC(=O)NCc1ccc(O)c(OC)c1 [N-(3-methoxy-4-hydroxybenzyl)nonanoamide, reference compound]
taste profile ([1]; 200 ppb in 11% sugar solution): slightly delayed onset of effect in pharyngeal cavity, little pungency on the tongue, stinging, no development of heat

COc1cc(CNC(=O)CCCC/C=C/C(C)C)ccc1O [Capsaicin, N-(4-hydroxy-3-methoxybenzyl)-8-methyl-(6E)-nonenoamide]
damage occurring in the case of frequent use and overdose ([2]; frequent use and overdose): chronic gastritis, kidney and liver damage | LD50 ([2]; mouse oral): 47 mg

CCCCCCCCNC(=O)C(O)c1ccc(OC)c(O)c1 (centres unmarked) [no. 6, 2-(3-Hydroxy-4-methoxyphenyl)-2-hydroxy-N-octylacetamide]
taste profile ([1]; 1 ppm in 11% sugar solution): slightly pungent, particularly on the tongue, slight tingling, rapidly disappears again | estimation of pungency ([1]; 1 ppm in 11% sugar solution): 3
